34 compounds from PubChem BioAssay AID732 (Emory University Molecular Libraries Screening Center, 2007) can be followed below.

Several values for one entry are separate records, joined by “and”; a condition that tells them apart may be missing. Equal entries are not always repeated. Activity calls are given as the source filed them. The rule behind the calls is not given here.

The subject of this assay is in vivo angiogenesis, blood vessel count. As to the kind of experiment: angiogenesis inhibition in living animals, in vivo study, HTS (AID 732).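 Note: zebrafish embryos dosed at one day post fertilization; 0% = reference inhibitor and 100% = plate mean.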 The settings on record: hits give low values;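 tested at 30 µM in the well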.

As to `CN=C(NC#N)Nc1ccc(C2=NNC(=O)CC2C)cc1` (centres undefined), the vessel count % control is 106% (inactive).

`O=C(Cc1ccc(Cl)c(Cl)c1)OCCN1CCCC1`: the vessel count % control is 81.9% (inactive).

In the case of `CC(C)(C)NCC(O)COc1nsnc1N1CCOCC1` (centres undefined), the vessel count % control was 101% (inactive).

With `CC(C)c1cccc(C(C)C)c1O`, the vessel count % control is 99.6% (inactive).

As to `NC(N)=NC(=O)c1nc(Cl)c(N2CCCCCC2)nc1N`, the vessel count % control was 119% (inactive).

`NCCCCNS(=O)(=O)c1cccc2c(Cl)cccc12`: the vessel count % control was 107% (inactive).

For the compound `CC[C@@H]1C(=O)OC[C@@H]1Cc1cncn1C`, the vessel count % control is 82.3% (inactive) and 90.8% (inactive).

With `Cc1cccc(C2CN(C)CCc3c2cc(O)c(O)c3Cl)c1` (centres undefined), the vessel count % control is 96.5% (inactive).

As for `Nc1cc(Cl)c(NC2=NCCN2)c(Cl)c1`, the vessel count % control was 114% (inactive).

Turning to `CCCCCCCCCCCCCCCCCCOC[C@H](COP(=O)([O-])OCC[N+](C)(C)C)OC`, the vessel count % control was 97.5% (inactive).

Consider `CCCN1CCc2cccc3c2[C@H]1Cc1ccc(O)c(O)c1-3`, for which the vessel count % control is 89.9% (inactive).

For `CC1(C)NC(=O)N(c2ccc([N+](=O)[O-])c(C(F)(F)F)c2)C1=O`, the vessel count % control is 91.7% (inactive).

For the compound `CN(C)CCC=C1c2ccccc2C=Cc2ccccc21`, the vessel count % control was 82.4% (inactive).

With `NC(=O)c1ccccc1`, the vessel count % control was 92% (inactive).

With `c1cc(CN2CCCCC2)cc(OCCCNc2nc3ccccc3s2)c1`, the vessel count % control is 112% (inactive).

For `Cc1cc(NC(=O)Nc2ccc3c(ccn3C)c2)sn1`, the vessel count % control is 112% (inactive).

With `CN[C@H]1CC[C@@H](c2ccc(Cl)c(Cl)c2)c2ccccc21`, the vessel count % control was 98% (inactive).

As for `O=C(O)C1CCCNC1` (centres undefined), the vessel count % control was 120% (inactive).

With `Cc1c(C)c2c(c(C)c1O)CCC(C)(CN1CCN(c3cc(N4CCCC4)nc(N4CCCC4)n3)CC1)O2` (centres undefined), the vessel count % control is 99.2% (inactive).

Take `CCCCC[C@H](CC(=O)NO)C(=O)N[C@H](C(=O)N1CCC[C@H]1CO)C(C)C`: the vessel count % control is 103% (inactive).

Take `COc1nc(C)nc(Cl)c1NC1=NCCN1`: the vessel count % control is 81.3% (inactive).

As to `COc1ccc(NC(=O)/C=C/c2ccc(Cl)cc2)cc1`, the vessel count % control is 106% (inactive).

In the case of `CN1CCc2c(cc(O)c(O)c2Cl)C(c2cccc(Cl)c2)C1` (centres undefined), the vessel count % control is 118% (inactive).

For `Nc1nc2c(nc(Br)n2C2OC3COP(=O)(O)O[C@@H]3C2O)c(=O)[nH]1` (some centres undefined), the vessel count % control is 110% (inactive).

As to `NC(N)=Nc1ccc2[nH]c3c(c2c1)C[C@@]1(O)[C@H]2Cc4ccc(O)c5c4[C@@]1(CCN2CC1CC1)[C@H]3O5`, the vessel count % control is 101% (inactive).

Turning to `CN1C2CCC1CC(OC(=O)c1c[nH]c3ccccc13)C2` (centres undefined), the vessel count % control is 91.1% (inactive).

Turning to `Oc1ccc(Cn2cc[nH]c2=S)cc1`, the vessel count % control was 92.9% (inactive).

In the case of `CCS(=O)(=O)Nc1cccc(C(=C2CCCCC2)c2cnc[nH]2)c1`, the vessel count % control is 98.4% (inactive).

With `COc1ccc(C(=O)N2CCCC2=O)cc1`, the vessel count % control is 116% (inactive).

As to `CNc1ncnc2c1ncn2[C@H]1C[C@H](OP(=O)(O)O)[C@@H](COP(=O)(O)O)O1`, the vessel count % control was 93.2% (inactive).

For the compound `NC(=S)c1ccc[n+]([C@@H]2O[C@@H](COP(=O)([O-])OP(=O)(O)OC[C@H]3O[C@@H](n4cnc5c(N)ncnc54)C(OP(=O)(O)O)[C@H]3O)C(O)C2O)c1` (some centres undefined), the vessel count % control was 101% (inactive).

As to `C#CC(N)CCC(=O)O` (centres undefined), the vessel count % control was 80% (inactive).

With `COCCOC(=O)C1=C(C)NC(C)=C(C(=O)OC(C)C)C1c1cccc([N+](=O)[O-])c1` (centres undefined), the vessel count % control is 95.6% (inactive).

As to `COc1cc(/C=C(\C#N)C(=O)c2ccc(O)c(O)c2)cc(I)c1O`, the vessel count % control was 94.3% (inactive).
